In a melting point compilation (Tetko et al.; mined from patent text by program, amines drawn as free bases though some values may be those of a salt):

SMILES | melting point [°C]
CC(C)n1cc(-c2ccc(NS(=O)(=O)c3ccccc3)cc2)c2c(N)ncnc21 | 238 to 240
COc1cc2ccccc2cc1O | 108 to 109
CCOc1ccc(-c2nc(CCC(=O)c3ccccc3C#N)cs2)cc1OCC | 114 to 115
N#CC(C#N)CC(=O)c1ccc(Cl)s1 | 155 to 158
CCCc1c(OCCCCCc2c(O)c(O)c(Cl)c(Cl)c2Cl)ccc(C(=O)O)c1O | 193 to 196
CN1CCN(Cc2ccc(-c3cc4c(Nc5cccc6[nH]ccc56)c(C#N)cnc4s3)cc2)CC1 | > 245
O=C(O)c1cccc2cc(Oc3cc(Cl)ncn3)ccc12 | 194 to 195
CCCCCCCCCCCCNC1=NC(N2CCOCC2)=NCN1 | 117 to 118
O=C(O)C(=O)c1ccc(OCCCCc2cccnc2)cc1 | 163 to 165
CN(C)C=CC(=O)c1c(-c2ccc(F)cc2)nc2occn12 | 187 to 189
CC1CCC(C)C1C(=O)O (stereo unspecified) | 45
Oc1c(-c2ccccc2)cc(C2c3ccccc3-c3ccccc32)cc1-c1ccccc1 | 144 to 145
O=C(Oc1ccc2c(c1)OC=C(C(=O)N1CCN(C(c3ccc(F)cc3)c3ccc(F)cc3)CC1)O2)c1cccnc1 | 142
O=C(OI(OC(=O)C(F)(F)F)C(F)(F)C(F)(F)C(F)(F)C(F)(F)C(F)(F)C(F)(F)F)C(F)(F)F | 60 to 62
CCCNC1=CC(=O)C(NCCC)=C2C1=Nc1ccccc1S2(=O)=O | 174 to 176
Cn1cncc1-c1cccc(Nc2nccc3ccccc23)c1 | 208 to 209
Cc1cc(C)cc(S(=O)(=O)c2ccc([N+](=O)[O-])cc2)c1 | 179 to 180
CCOc1c(C2=C(C(C)(C)C)C(C)(C)CO2)sc2ccc(O[Si](C)(C)C(C)(C)C)cc12 | 64 to 65
NS(=O)(=O)c1ccc(/C(=C2\CCOC2=O)c2ccc(F)cc2)cc1 | 202
COc1cc2c(c3c1OC(C)(C)C3)C(c1ccc(NC(=O)c3cccnc3)cc1)=NC(C)(C)C2 | 130 to 137
O=Cc1ccc2sc(=O)[nH]c2c1 | 140 to 142

SMILES | melting point [°C]
O=c1cc2c(nn1-c1ccc(Cl)cc1)-c1cnccc1CC2 | 166 to 168
CN(C)C(=O)COc1ccc2ccc(N)nc2n1 | 182
Cn1nc2c(oc3ccccc32)c1NC=O | 184 to 187
CC(=O)N1CCc2cc([N+](=O)[O-])cc(C#N)c21 | 245 to 255
CC(C)Cn1cnc2c(N)nc3cnccc3c21 | 306 to 307
Nc1ccc(-c2scc3c2OCCO3)cc1 | 98.5 to 99
N#Cc1ccccc1Nc1ccccc1[N+](=O)[O-] | 134 to 138
C#CCOC(=O)c1cc(-n2c(=O)c3c(n(C)c2=O)CCC3)c(F)cc1Cl | 193 to 195
Cc1c(CO)c2cnnc(NCc3ccccc3)c2n1Cc1ccccc1 | 238 to 240
COc1ccc(Cn2c(N)cc(=O)[nH]c2=S)cc1OCc1ccccc1 | 239 to 240
COc1c(N2CC(O)C2)c(F)cc2c(=O)c(C(=O)O)cn(C3CC3)c12 | 246 to 250
CCC#CCOc1cc(C=O)ccc1OC | 38 to 39
Cc1ccc([C@H]2Sc3cc(C)ccc3NC(=O)[C@H]2O)cc1 | 212 to 214
O=c1[nH]cc(Cc2ccccc2)c2ccccc12 | 217 to 220
O=C(Cn1cc[nH]c(=O)c1=O)OC(c1ccccc1)c1ccccc1 | 97 to 98
CCS(=O)(=O)Nc1cc(-c2ncnc(Cl)c2Cl)c(F)cc1C#N | 149 to 150
Cc1cc(C)c(NC(=O)N(O)C(C)C)cc1C | 176 to 177
CCN(CC)c1ccc(-c2nnc(Nc3ccc(Br)c(Cl)c3)s2)cc1 | 232 to 233
CCc1nc2cnc3cc(OCC(=O)N4CCOCC4)ccc3c2n1CCOc1ccccc1 | 190 to 191
CC(=O)OC1CC2C1N(C(C)=O)C(=O)N2C(C)=O (stereo unspecified) | 148 to 150
